Reference: PMC5853285, “Necessity of Bumped Kinase Inhibitor Gastrointestinal Exposure in Treating Cryptosporidium Infection” (The Journal of Infectious Diseases, 2017)
Values after ≈ are worked out from the molar mass of the structure shown.

How the values were obtained:
Plasma protein binding = type: in vitro ADME
Description: (§1) Information regarding the C. parvum oocysts, generation of BKIs, CpCDPK1 enzyme inhibition, C. parvum growth inhibition by BKIs, plasma protein binding, and neonatal mouse model of C. parvum infection has been described in detail elsewhere. Information on BKI solubility and permeability, Gastroplus modeling, the interferon (IFN) γ knockout (KO) mouse model, and measurement of BKI levels in the GI tract of mice is described in the Supplementary Material. All animal experiments were approved by the Institutional Animal Care and Use Committees at the participating universities (University of Washington, University of Georgia, and University of Arizona).

[1] = BKI aqueous solubility at pH 2 and 6.5; type: physicochemical; conditions: second of two values; measured at pH 2 and 6.5
Protocol: Briefly, 1 μL of 20 mM dimethyl sulfoxide (DMSO) stock was added to 199 μL of buffer. Samples were vortexed and allowed to incubate at 25 °C overnight. The next day, each sample was centrifuged at 13800 rpm for 40 minutes at 25 °C. The supernatant was collected and 100 μL of the supernatant was added to 100 μL acetonitrile. Solutions were analyzed by HPLC/UV and were quantified based on a five-point calibration curve for each analyte.

Cryptosporidium parvum [2] = test: C. parvum growth inhibition by BKIs in vitro; type: cell-based; conditions: read-out: BKI EC50 for Inhibition of C. parvum Proliferation
Description: as §1

Cryptosporidium parvum [3] = test: Neonatal mouse model of C. parvum infection; type: in vivo; design: concentration or dose not given beside the values
Description: as §1

[4] = Single oral dose pharmacokinetics of BKIs in mice (plasma); type: in vivo; conditions: mouse plasma
Protocol: Mouse oral PK studies were performed as previously described. Briefly, three female BALB/c mice (10 -12 weeks old) were used in each group. With the exception of 1556, each group of mice received an individual BKI at a dose of 10 mg/kg body weight by oral gavage in 200 μL 70% Tween 80/30% ethanol diluted in saline. The only difference for mice administered 1556 was that the group received a dose of 25 mg/kg. Blood samples were taken by tail bleeding into heparinized tubes at designated time points and centrifuged to obtain plasma. The samples were frozen at -20°C. The plasma samples were prepared by adding acetonitrile + 0.1% formic acid with an internal standard. Calibration curves were generated by spiking standards of each BKI into mouse serum and preparing the standards along with test samples. The PK calculations of Cmax and AUC were performed using Phoenix WinNonlin software (Certara, Princeton, NJ).

Cryptosporidium = test system: Cryptosporidium; design: method as in PMID 12423984; conditions: cited from earlier work
Cryptosporidium parvum [5] = test: IFN-γ KO adult mouse model of C. parvum infection (Nluc oocyst shedding); type: in vivo; conditions: IFN-γ KO mice, 6 mg/kg once daily oral for 5 days
Description: The ability to predict in vivo efficacy with BKI ascending colon concentrations was further evaluated in an adult model of C. parvum infection. Female IFN-γ KO mice were infected with transgenic C. parvum strain UGA1 expressing nanoluciferase (Nluc), and the infection was allowed to proceed for 3–5 days. […] To account for daily growth of parasites over the course of the study, the observed RLUs in the vehicle-treated mice were used to simulate the growth of the parasite over the course of the experiment (Figure 4A). On each day of the study, the simulated parasite level was based on both the growth of the parasite and the predicted inhibition by BKI [[22–24]].
The efficacy of BKIs in an adult mouse model of C. parvum infection was tested as previously described. Briefly, all female IFN-γ KO mice (B6.129S7-Ifngtm1Ts/J, Jackson Laboratories), were infected by oral gavage (PO) with 10,000 Nluc expressing C. parvum oocysts in 100 μL DPBS for studies with 1534. For all other studies, mice were infected PO with 1,000 Nlucexpressing C. parvum oocysts. Vehicle control groups and BKI treated groups each contained at least three mice. […] The stool samples were checked for luminescence on the day of collection and RLU readings were standardized to fecal sample weights. […]

Row | SMILES | Plasma Protein Binding (Plasma protein binding) [%] | Solubility (second value) [1] [µM] | EC50 (Cryptosporidium parvum [2]) [nM] | Reduction in Neonatal Mouse C. parvum Infection (Cryptosporidium parvum [3]) [%] | AUC ([4]; single oral dose 25 mg/kg) [µmol·min/L] | Cmax ([4]; single oral dose 25 mg/kg) [nM] | Cmax ([4]; single oral dose 10 mg/kg) [nM] | AUC ([4]; single oral dose 10 mg/kg) [µmol·min/L] | efficacy (Cryptosporidium; human immunodeficiency virus–infected individuals) | response rate (Cryptosporidium; malnourished children with cryptosporidiosis) [%] | in vivo efficacy (oocyst shedding, RLU) (Cryptosporidium parvum [5])
1 | CC(C)Cn1nc(-c2ccc3nc(OC4CC4)ccc3c2)c2c(N)ncnc21 [BKI 1556] | 86 | 7 (≈ 2.62 µg/mL) | 3200 | 61 | 2082 | 7000 |  |  |  |  | 
2 | CCOc1ccc2cc(-c3nn(CC4CCN(C)CC4)c4ncnc(N)c34)ccc2n1 [BKI 1369] | 37 |  | 2300 | 70 |  |  | 300 |  |  |  | 
3 | Nc1ncnc2c1c(-c1ccc3nc(OC4CC4)ccc3c1)nn2CC1CCOCC1 [BKI 1557] | 84 | 17 (≈ 7.08 µg/mL) | 5500 | 33 |  |  | 900 | 67 |  |  | 
4 | CCOc1ccc2cc(-c3nn(CC4CCNCC4)c4ncnc(N)c34)ccc2n1 [BKI 1318] | 55 |  | 3200 | 65 |  |  | 6500 | 2208 |  |  | 
5 | CC(=O)Oc1ccccc1C(=O)Nc1ncc([N+](=O)[O-])s1 [nitazoxanide] |  |  |  |  |  |  |  |  | no efficacy | 30 | 
6 | CC(C)Cn1nc(-c2ccc3cc(OC4CC4)ccc3c2)c2c(N)ncnc21 [BKI 1534] | 99 | 2 (≈ 0.747 µg/mL) | 2200 | 61 |  |  | 200 | 58 |  |  | lack of BKI efficacy
7 | CC(C)(O)Cn1cc(-c2ccc3nc(OC4CC4)ccc3c2)c2c(N)ncnc21 [BKI 1649] | 90 | 83 (≈ 32.3 µg/mL) | 2300 | 56 |  |  | 4900 | 6416 |  |  | 
8 | CCOc1ccc2cc(-c3nn(CC4CCN(C)CC4)c4ncnc(N)c34)ccc2c1 [BKI 1294] | 84 |  | 2700 | 56 |  |  | 800 | 430 |  |  | 
